US12534477B2, “Compound having KHK inhibitory effect” (HANGZHOU ZHONGMEIHUADONG PHARMACEUTICAL CO., LTD., priority 2019, dated 2026)
Where two headings read alike, the source gives them in different places.

Key:
[1] = molecular target: Recombinant Human Ketohexokinase (KHK) (Homo sapiens (Human), UniProt P50053); test: Ketohexokinase assay (KHK assay), ADP-Glo; assay type: biochemical
Method: • 1. EnVision multilabel reader, Perkin Elmer; • 2. OptiPlate 384-well microplate, Perkin Elmer, Cat. No. 6007290; • 3. Recombinant Human Ketohexokinase (KHK), R&D Cat. No.: 8177-HK-020, Lot No.: DDFK0117092; • 4. Fructose (D(−)-Fructose), SCR Cat. No.: 36003034; and • 5. ADP-Glo kinase assay kit, Promega_Cat. No.: V9101.
1. preparation of Dilution Buffer containing 50 mM hydroxyethylpiperazine […] (Hepes), 140 mM KCl, 3.5 mM MgCl2, and 0.01% bovine serum albumin (BSA), pH 7.4.
2. A working solution of ketohexokinase at 2.5 times concentration was prepared with Dilution Buffer, with 50 nM ketohexokinase and 12.5 mM fructose.
3. A working solution of adenosine triphosphate (ATP) at 2.5 times concentration was prepared with Dilution Buffer, with a concentration of 250 μM.
4. Each compound was diluted starting at a concentration of 500 μM, 3-fold diluted for 9 concentration points. The final concentration of the compound in the reaction system started from 10 μM and the final concentration of dimethyl sulfoxide (DMSO) was 2%.
5. A 96-well plate was prepared as a reaction plate, and was incubated at room temperature for 5 min after adding 6 μL ketohexokinase working solution at 2.5 times concentration to each well and further adding 3 μL compound working solution to each well.
6. The first well of each row was a positive control for a compound, i.e. the same volume of the buffer was added to replace the compound and ketohexokinase. The last well was a negative control for the compound, i.e. the same volume of Dilution Buffer was added instead of the compound.
7. 6 μL ATP working solution was added to each well in a 96-well reaction plate to initiate the kinase reaction. The kinase reaction was incubated in a constant temperature heater at 28° C. for 1 h.
1. A384 plate was prepared as a detection plate, and firstly 5 μL ADP-Glo reagent was added.
2. 5 μL kinase reaction mixture from the reaction plate was added to each well and incubated in a constant temperature heater at 28° C. for 30 min.
3. 10 μL kinase detection reagent was added to each well and incubated in a constant temperature heater at 28° C. for 30 min.
4. The detection plate was placed in an EnVision multilabel reader to read the chemiluminescent signal.

[2] = Liver-blood ratio, tissue distribution in rats; assay type: in vivo, SD rats; settings: SD, rat, 1 mg/kg, PO 1 mpk
Method: Tissue distribution of compounds in SD rats was tested.
In the experiment, candidate compounds were formulated as clear solutions and administered to rats in a single oral dose (PO, 1 mpk). The vehicle for oral administration was a certain proportion of methylcellulose and Tween 80 in water. Whole blood was collected at a certain time and plasma was prepared, and tissues were collected at the corresponding time and prepared into tissue homogenates. Drug concentration was analyzed by LC-MS/MS, and pharmacokinetic parameters were calculated by Phoenix WinNonlin software.

[3] = tested on: fructose metabolism in mice; test: Acute fructose feeding experiment in mice; assay type: in vivo; settings: compound 30 mpk, oral fructose 1 g/kg
Method: The effect of test compounds on the fructose content in mice with high fructose intake was investigated.
All animals were acclimated for one week in an animal house, fed with normal chow and fasted for 16 hours before being given fructose.
1) The experiment began at −0.5 hr. A control group was given a certain volume of vehicle (a certain proportion of methylcellulose and Tween 80 in water), and an experimental group was given a certain dose of a solution of the compound (the administered volume was consistent with the vehicle).
2) 0.5 hour later and before administration of a fructose solution, a blood sample was collected at 0 hr, followed by oral administration of 1 g/kg of an aqueous fructose solution.
3) After the administration of fructose, blood samples were collected from saphenous vein of mice at 0.25, 0.5, 1, 2, 3 and 8 hr, and fructose concentration was analyzed by LC-MS/MS.

Chain of Recombinant Human Ketohexokinase (KHK) (P50053 whole entry): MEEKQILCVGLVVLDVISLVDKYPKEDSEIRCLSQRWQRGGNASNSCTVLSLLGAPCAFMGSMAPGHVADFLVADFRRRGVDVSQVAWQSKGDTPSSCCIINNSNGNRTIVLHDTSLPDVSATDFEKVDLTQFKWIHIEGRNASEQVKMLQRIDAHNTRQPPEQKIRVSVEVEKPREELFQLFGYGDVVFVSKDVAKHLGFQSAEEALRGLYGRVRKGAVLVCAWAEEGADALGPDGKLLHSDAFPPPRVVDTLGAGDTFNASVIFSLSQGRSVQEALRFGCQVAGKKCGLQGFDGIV

SMILES	IC50 [1] [nM]	also measured
C[C@H]1CCN1c1nc(N2C[C@@H]3[C@@H](CC(=O)O)[C@@H]3C2)c2scnc2n1 [WX002]	190	
C[C@H]1CCN1c1nc(Nc2ccc(CC(=O)O)cc2)c2ncsc2n1 [WX003]	110	
C[C@H]1CCN1c1nc(N2C[C@@H]3[C@@H](CC(=O)O)[C@@H]3C2)nc2ncsc12 [WX005]	650	
Cc1csc2nc(N3CC[C@@H]3C)nc(Nc3ccc(CC(=O)O)cc3)c12 [WX007]	16	
Cc1csc2nc(N3CC[C@@H]3C)nc(N3C[C@@H]4C(CC(=O)O)[C@@H]4C3)c12 (stereo partly shown) [WX008]	210	
C[C@H]1CCN1c1nc(N2CC3(CC3C(=O)O)C2)c2ccsc2n1 (stereo partly shown) [WX009]	100	
C[C@H]1CCN1c1nc(Nc2ccc(CC(=O)O)c(F)c2)c2ccsc2n1 [WX010]	15	
C[C@H]1CCN1c1nc(Nc2ccc(C(=O)O)c(C#N)c2)c2ccsc2n1 [WX011]	17	
C[C@H]1CCN1c1nc(Nc2ccc(C(=O)O)cc2)c2ccsc2n1 [WX012]	9.4	concentration at 1.5 h ([2]; liver, 1.5 h, read-out: Liver tissue concentration): 2100 nM; concentration at 2 h ([2]; liver, 2.0 h, read-out: Liver tissue concentration): 618 nM; concentration at 6 h ([2]; liver, 6.0 h, read-out: Liver tissue concentration): 634 nM; Kp at 1.5 h ([2]; liver/plasma, 1.5 h, read-out: Liver-blood ratio): 2.62; Kp at 2 h ([2]; liver/plasma, 2.0 h, read-out: Liver-blood ratio): 2.32; Kp at 6 h ([2]; liver/plasma, 6.0 h, read-out: Liver-blood ratio): 4.39; concentration at 1.5 h ([2]; plasma, 1.5 h, read-out: Plasma concentration): 810 nM; concentration at 2 h ([2]; plasma, 2.0 h, read-out: Plasma concentration): 273 nM; concentration at 6 h ([2]; plasma, 6.0 h, read-out: Plasma concentration): 145 nM
C[C@H]1CCN1c1nc(Nc2cc(F)c(CC(=O)O)c(F)c2)c2ccsc2n1 [WX014]	14	
C[C@H]1CCN1c1nc(Nc2cc(F)c(C(=O)O)c(F)c2)c2ccsc2n1 [WX015]	6.7	
C[C@H]1CCN1c1nc(-c2cccc(CCC(=O)O)c2)c2ccsc2n1 [WX016]	32	
C[C@H]1CCN1c1nc(N2CC(CC(=O)O)C2)c2ccsc2n1 [WX018]	390	
C[C@H]1CCN1c1nc(N2CC3(C[C@@H]3C(=O)O)C2)c2ccsc2n1 [WX020]	130	AUC of integral fructose concentration for dosed group [3]: 1180 nM·h; AUC of integral fructose concentration of dosed group/AUC of Integral fructose concentration of control group [3]: 8.5
C[C@H]1CCN1c1nc(-c2ccc(CC(=O)O)c(F)c2)c2ccsc2n1 [WX022]	200	
C[C@H]1CCN1c1nc(N2CC[C@H](CC(=O)O)C2)c2ccsc2n1 [WX025]	240	
C[C@H]1CCN1c1nc2c(c(N3C[C@@H]4[C@@H](CC(=O)O)[C@@H]4C3)n1)CCS2 [WX026]	91	AUC of integral fructose concentration for dosed group [3]: 993 nM·h; AUC of integral fructose concentration of dosed group/AUC of Integral fructose concentration of control group [3]: 8.9
C[C@H]1CCN1c1nc(N2C[C@@H]3[C@@H](CC(=O)O)[C@@H]3C2)c2cc(F)sc2n1 [WX028]	50	
C[C@H]1CCN1c1nc(N2C[C@@H]3[C@@H](CC(=O)O)[C@@H]3C2)c2c(F)csc2n1 [WX030]	31	AUC of integral fructose concentration for dosed group [3]: 1029 nM·h; AUC of integral fructose concentration of dosed group/AUC of Integral fructose concentration of control group [3]: 9.2
C[C@H]1CCN1c1nc(NC2CC(C(=O)O)C2)c2ccsc2n1 (stereo partly shown) [WX032]	150	
C[C@H]1CCN1c1nc(N2CC3(CC3C(=O)O)C2)c2cc(Cl)sc2n1 (stereo partly shown) [WX036]	69	
C[C@H]1CCN1c1nc(N2CC3(CCC3C(=O)O)C2)c2cc(Cl)sc2n1 (stereo partly shown) [WX038]	480	
C[C@H]1CCN1c1nc(N2CC3(C[C@H]3C(=O)O)C2)c2cc(Cl)sc2n1 [WX044]	81	
C[C@H]1CCN1c1nc(NC2CC3(C2)CC3C(=O)O)c2cc(Cl)sc2n1 (stereo partly shown) [WX051]	69	
C[C@H]1CCN1c1nc(N2CC3(C[C@@H]3CC(=O)O)C2)c2cc(Cl)sc2n1 [WX056]	360	
C[C@H]1CCN1c1nc(N2CC3(C[C@H]3CC(=O)O)C2)c2cc(Cl)sc2n1 [WX057]	200	

Further compounds by falling IC50 [1], results first:

IC50 [1] [nM]	SMILES	also measured
1000	C[C@H]1CCN1c1nc(N2CC3(C[C@@H]3CC(=O)O)C2)c2ccsc2n1 [WX054]	
700	C[C@H]1CCN1c1nc(N2C[C@@H]3[C@@H](CC(=O)O)[C@@H]3C2)c2sccc2n1 [WX046]	
650	C[C@H]1CCN1c1nc(N2CC3(C[C@H]3CC(=O)O)C2)c2ccsc2n1 [WX055]	
630	C[C@H]1CCN1c1nc(-c2cccc(CCC(=O)O)n2)c2ccsc2n1 [WX047]	
320	C[C@H]1CCN1c1nc(N2CC3(C[C@H]3C(=O)O)C2)c2cccc(F)c2n1 [WX040]	
260	C[C@H]1CCN1c1nc(N2CC3(CC3C(=O)O)C2)c2cccc(Cl)c2n1 (stereo partly shown) [WX050]	
250	C[C@H]1CCN1c1nc(N2CCC3(CC3C(=O)O)C2)c2ccsc2n1 (stereo partly shown) [WX027]	
210	C[C@H]1CCN1c1nc(N2C[C@@H]3[C@@H](CC(=O)O)[C@@H]3C2)c2scc(C#N)c2n1 [WX023]	
210	C[C@H]1CCN1c1nc(N2CC3(C2)CC3(C)C(=O)O)c2cc(Cl)sc2n1 (stereo partly shown) [WX049]	
160	C[C@H]1CCN1c1nc2c(c(N3C[C@@H]4[C@@H](CC(=O)O)[C@@H]4C3)n1)CSC2 [WX021]	
150	C[C@H]1CCN1c1nc(N2CC3(CC3C(=O)O)C2)c2c(F)csc2n1 (stereo partly shown) [WX037]	
110	C[C@H]1CCN1c1nc(N2CC3(C[C@H]3C(=O)O)C2)c2ccsc2n1 [WX019]	AUC of integral fructose concentration for dosed group [3]: 849 nM·h; AUC of integral fructose concentration of dosed group/AUC of Integral fructose concentration of control group [3]: 6.1
110	C[C@H]1CCN1c1nc(N2CC3(CC3C(=O)O)C2)c2cccc(F)c2n1 (stereo partly shown) [WX034]	
92	C[C@H]1CCN1c1nc(-c2cncc(CCC(=O)O)c2)c2ccsc2n1 [WX048]	
71	C[C@H]1CCN1c1nc(-c2ccnc(CCC(=O)O)c2)c2ccsc2n1 [WX033]	
61	C[C@H]1CCN1c1nc(N2C[C@@H]3[C@@H](CC(=O)O)[C@@H]3C2)c2cccc(F)c2n1 [WX024]	AUC of integral fructose concentration for dosed group [3]: 1858 nM·h; AUC of integral fructose concentration of dosed group/AUC of Integral fructose concentration of control group [3]: 13.4
52	C[C@H]1CCN1c1nc(N2CC3(C[C@@H]3C(=O)O)C2)c2cccc(F)c2n1 [WX041]	AUC of integral fructose concentration for dosed group [3]: 1704 nM·h; AUC of integral fructose concentration of dosed group/AUC of Integral fructose concentration of control group [3]: 6.5
36	C[C@H]1CCN1c1nc(-c2cncc(OCC(=O)O)c2)c2ccsc2n1 [WX039]	
30	C[C@H]1CCN1c1nc(N2CC3(C[C@@H]3C(=O)O)C2)c2cc(Cl)sc2n1 [WX045]	
28	C[C@H]1CCN1c1nc(N2C[C@@H]3[C@@H](CC(=O)O)[C@@H]3C2)c2cc(Cl)sc2n1 [WX029]	AUC of integral fructose concentration for dosed group [3]: 1687 nM·h; AUC of integral fructose concentration of dosed group/AUC of Integral fructose concentration of control group [3]: 15.1
20	C[C@H]1CCN1c1nc(-c2cccc(/C=C/C(=O)O)c2)c2ccsc2n1 [WX017]	
